Patent US20140093598A1, “COMPOUNDS AND EXTRACTS FROM GNETUM AFRICANUM AND ANTI-INFLAMMATORY ACTIVITY RELATED THERETO” (PHARMAFRI-CAN INC., priority 2010, published 2014)
Read-outs that look alike come from different tables or passages of the source.

Legend:
[1] = test system: LPS induced TNF-α production in RAW 264.7 cells; assay: LPS-induced TNF-α production in RAW 264.7 cells, ELISA of culture supernatants; assay type: cell-based; conditions: for IC50: Mus musculus, RAW264.7
Description: Cell culture supernatants were used for the determination of TNF-α production by ELISA (R&D systems).
RAW 264.7 cells were treated with G. africanum leaf and stem extracts (200 μg/ml) for 1 hour and were then induced with LPS (10 μg/ml) for 18 hr. Cell culture supernatants were used for the determination of TNF-α production by ELISA (R&D systems).
Methanol, ethyl acetate and 95% ethanol stem extracts were further analyzed in a dose dependent manner (25-200 μg/ml).

[2] = test system: LPS induced TNF-α production in RAW 264.7 cells; conditions: reported by Iyori et al. 2008; cited from earlier work

Oc1ccc(/C=C/c2cc(O)cc(O)c2)cc1 [resveratrol, (E)-5-(4-hydroxystyryl)benzene-1,3-diol]
IC50 ([1]; resveratrol 1 μM-100 μM, 1 hour pre-treatment, LPS 10 μg/ml for 18 hr, read-out: IC50, anti-inflammatory activity of resveratrol (FIG. 3)): 50 µM | IC50 ([1]; same value as 50 μM, restated in μg/ml, read-out: IC50, anti-inflammatory activity of resveratrol (FIG. 3), expressed by mass): 12 µg/mL | Inhibition of LPS-induced TNF-α production ([1]; resveratrol at 50 μM and 100 μM, FIG. 3A): inhibited LPS-induced TNF-α production | Inhibition of LPS induced TNF-α production [2]: could inhibit LPS induced TNF-α production
